The text below walks through data of US20130281512A1, “AGENTS FOR TREATING DISORDERS INVOLVING MODULATION OF RYANODINE RECEPTORS” (LES LABORATOIRES SERVIER, priority 2012, published 2013).

Data set [1] concerns the target T1, RyR1 (Mus musculus, UniProt E9PZQ0).
T1 construct: RyR1 from aged (24 months) mice is oxidized, cysteine-nitrosylated, and depleted of calstabin1; host or cells: mice (in vivo)
Nature of the data set: Calstabin1 rebinding to RyR1 in isoproterenol treated mice. To be noted: isoproterenol 0.5 mg/kg/hr plus compound in osmotic pumps, five days; compared with 3.6 mM S36. In kind it is in vivo. The source says:
Isoproterenol, a beta adrenergic receptor agonist, induces heart failure in mice via overstimulation of the beta adrenergic receptor. Concurrent with this is the activation of PKA, phosphorylation of the RyR2 on the SR, and decreased interaction of calstabin2 (FKBP12.6) to RyR2. A similar cascade of events occurs in skeletal muscle, wherein RyR1 is phosphorylated, leading to decreased binding of calstabin1 (FKBP12) to RyR1.
As described in detail in International publication no. WO2008/064264, the contents of which are incorporated by reference herein, chronic isoproterenol treatment to a wild-type mouse offers a fast and reliable method for inducing changes in RyR biochemistry that could be readily quantified. These changes include increased RyR phosphorylation and concomitant decreased calstabin binding.
C57Bl/6 mice were maintained and studied according to approved protocols. The synthetic beta-adrenergic agonist, isoproterenol (ISO) was obtained from Sigma (165627) and prepared as a 100 mg/ml stock in water. […]
The loaded osmotic pumps were implanted subcutaneously by the following steps. The recipient mouse was anesthetized with 1.5-2% isoflurane in O2 administered at 0.6 L/min, and its weight was then measured and recorded. […]

In data set [2] the test system is ischemia-reperfusion induced heart failure. Nature of the data set: Model of chronic post-ischemic heart failure in rat (ischemia-reperfusion injury). The data set is classed as in vivo. How it is done:
Chronic heart failure was induced in male wistar rats (224-240 g, 10-11 weeks of age) by ischemia-reperfusion (I/R) injury. For I/R protocol, the left anterior descending (LAD) coronary artery was occluded for 1 h. Drug treatment (5 mg/kg/d or 10 mg/kg/d in drinking water) was initiated 1 week after reperfusion and was maintained for a 3 month study period. […] Cardiac specimens were also analyzed to assess hypertrophy and collagen content. The study design is depicted in FIG. 3. Experiments were performed in a blinded manner. On parameters measured over time, comparison of Sham versus Vehicle and comparison of drug treatments are analyzed by 2 way ANOVAs with repeated measures. On parameters measured at sacrifice and morphometry, comparisons of Sham versus Vehicle are analyzed by t-test and comparisons of drug treatments by 1-way ANOVA followed by Dunnett test.

Where [3] appears, read: 5 and 10 mg/kg/d in drinking water, one to three months, vs vehicle.
The mark [4] stands for this setting: 5 and 10 mg/kg/d, invasive hemodynamics at 3 months, vs vehicle.

T1 sequence (E9PZQ0 whole entry): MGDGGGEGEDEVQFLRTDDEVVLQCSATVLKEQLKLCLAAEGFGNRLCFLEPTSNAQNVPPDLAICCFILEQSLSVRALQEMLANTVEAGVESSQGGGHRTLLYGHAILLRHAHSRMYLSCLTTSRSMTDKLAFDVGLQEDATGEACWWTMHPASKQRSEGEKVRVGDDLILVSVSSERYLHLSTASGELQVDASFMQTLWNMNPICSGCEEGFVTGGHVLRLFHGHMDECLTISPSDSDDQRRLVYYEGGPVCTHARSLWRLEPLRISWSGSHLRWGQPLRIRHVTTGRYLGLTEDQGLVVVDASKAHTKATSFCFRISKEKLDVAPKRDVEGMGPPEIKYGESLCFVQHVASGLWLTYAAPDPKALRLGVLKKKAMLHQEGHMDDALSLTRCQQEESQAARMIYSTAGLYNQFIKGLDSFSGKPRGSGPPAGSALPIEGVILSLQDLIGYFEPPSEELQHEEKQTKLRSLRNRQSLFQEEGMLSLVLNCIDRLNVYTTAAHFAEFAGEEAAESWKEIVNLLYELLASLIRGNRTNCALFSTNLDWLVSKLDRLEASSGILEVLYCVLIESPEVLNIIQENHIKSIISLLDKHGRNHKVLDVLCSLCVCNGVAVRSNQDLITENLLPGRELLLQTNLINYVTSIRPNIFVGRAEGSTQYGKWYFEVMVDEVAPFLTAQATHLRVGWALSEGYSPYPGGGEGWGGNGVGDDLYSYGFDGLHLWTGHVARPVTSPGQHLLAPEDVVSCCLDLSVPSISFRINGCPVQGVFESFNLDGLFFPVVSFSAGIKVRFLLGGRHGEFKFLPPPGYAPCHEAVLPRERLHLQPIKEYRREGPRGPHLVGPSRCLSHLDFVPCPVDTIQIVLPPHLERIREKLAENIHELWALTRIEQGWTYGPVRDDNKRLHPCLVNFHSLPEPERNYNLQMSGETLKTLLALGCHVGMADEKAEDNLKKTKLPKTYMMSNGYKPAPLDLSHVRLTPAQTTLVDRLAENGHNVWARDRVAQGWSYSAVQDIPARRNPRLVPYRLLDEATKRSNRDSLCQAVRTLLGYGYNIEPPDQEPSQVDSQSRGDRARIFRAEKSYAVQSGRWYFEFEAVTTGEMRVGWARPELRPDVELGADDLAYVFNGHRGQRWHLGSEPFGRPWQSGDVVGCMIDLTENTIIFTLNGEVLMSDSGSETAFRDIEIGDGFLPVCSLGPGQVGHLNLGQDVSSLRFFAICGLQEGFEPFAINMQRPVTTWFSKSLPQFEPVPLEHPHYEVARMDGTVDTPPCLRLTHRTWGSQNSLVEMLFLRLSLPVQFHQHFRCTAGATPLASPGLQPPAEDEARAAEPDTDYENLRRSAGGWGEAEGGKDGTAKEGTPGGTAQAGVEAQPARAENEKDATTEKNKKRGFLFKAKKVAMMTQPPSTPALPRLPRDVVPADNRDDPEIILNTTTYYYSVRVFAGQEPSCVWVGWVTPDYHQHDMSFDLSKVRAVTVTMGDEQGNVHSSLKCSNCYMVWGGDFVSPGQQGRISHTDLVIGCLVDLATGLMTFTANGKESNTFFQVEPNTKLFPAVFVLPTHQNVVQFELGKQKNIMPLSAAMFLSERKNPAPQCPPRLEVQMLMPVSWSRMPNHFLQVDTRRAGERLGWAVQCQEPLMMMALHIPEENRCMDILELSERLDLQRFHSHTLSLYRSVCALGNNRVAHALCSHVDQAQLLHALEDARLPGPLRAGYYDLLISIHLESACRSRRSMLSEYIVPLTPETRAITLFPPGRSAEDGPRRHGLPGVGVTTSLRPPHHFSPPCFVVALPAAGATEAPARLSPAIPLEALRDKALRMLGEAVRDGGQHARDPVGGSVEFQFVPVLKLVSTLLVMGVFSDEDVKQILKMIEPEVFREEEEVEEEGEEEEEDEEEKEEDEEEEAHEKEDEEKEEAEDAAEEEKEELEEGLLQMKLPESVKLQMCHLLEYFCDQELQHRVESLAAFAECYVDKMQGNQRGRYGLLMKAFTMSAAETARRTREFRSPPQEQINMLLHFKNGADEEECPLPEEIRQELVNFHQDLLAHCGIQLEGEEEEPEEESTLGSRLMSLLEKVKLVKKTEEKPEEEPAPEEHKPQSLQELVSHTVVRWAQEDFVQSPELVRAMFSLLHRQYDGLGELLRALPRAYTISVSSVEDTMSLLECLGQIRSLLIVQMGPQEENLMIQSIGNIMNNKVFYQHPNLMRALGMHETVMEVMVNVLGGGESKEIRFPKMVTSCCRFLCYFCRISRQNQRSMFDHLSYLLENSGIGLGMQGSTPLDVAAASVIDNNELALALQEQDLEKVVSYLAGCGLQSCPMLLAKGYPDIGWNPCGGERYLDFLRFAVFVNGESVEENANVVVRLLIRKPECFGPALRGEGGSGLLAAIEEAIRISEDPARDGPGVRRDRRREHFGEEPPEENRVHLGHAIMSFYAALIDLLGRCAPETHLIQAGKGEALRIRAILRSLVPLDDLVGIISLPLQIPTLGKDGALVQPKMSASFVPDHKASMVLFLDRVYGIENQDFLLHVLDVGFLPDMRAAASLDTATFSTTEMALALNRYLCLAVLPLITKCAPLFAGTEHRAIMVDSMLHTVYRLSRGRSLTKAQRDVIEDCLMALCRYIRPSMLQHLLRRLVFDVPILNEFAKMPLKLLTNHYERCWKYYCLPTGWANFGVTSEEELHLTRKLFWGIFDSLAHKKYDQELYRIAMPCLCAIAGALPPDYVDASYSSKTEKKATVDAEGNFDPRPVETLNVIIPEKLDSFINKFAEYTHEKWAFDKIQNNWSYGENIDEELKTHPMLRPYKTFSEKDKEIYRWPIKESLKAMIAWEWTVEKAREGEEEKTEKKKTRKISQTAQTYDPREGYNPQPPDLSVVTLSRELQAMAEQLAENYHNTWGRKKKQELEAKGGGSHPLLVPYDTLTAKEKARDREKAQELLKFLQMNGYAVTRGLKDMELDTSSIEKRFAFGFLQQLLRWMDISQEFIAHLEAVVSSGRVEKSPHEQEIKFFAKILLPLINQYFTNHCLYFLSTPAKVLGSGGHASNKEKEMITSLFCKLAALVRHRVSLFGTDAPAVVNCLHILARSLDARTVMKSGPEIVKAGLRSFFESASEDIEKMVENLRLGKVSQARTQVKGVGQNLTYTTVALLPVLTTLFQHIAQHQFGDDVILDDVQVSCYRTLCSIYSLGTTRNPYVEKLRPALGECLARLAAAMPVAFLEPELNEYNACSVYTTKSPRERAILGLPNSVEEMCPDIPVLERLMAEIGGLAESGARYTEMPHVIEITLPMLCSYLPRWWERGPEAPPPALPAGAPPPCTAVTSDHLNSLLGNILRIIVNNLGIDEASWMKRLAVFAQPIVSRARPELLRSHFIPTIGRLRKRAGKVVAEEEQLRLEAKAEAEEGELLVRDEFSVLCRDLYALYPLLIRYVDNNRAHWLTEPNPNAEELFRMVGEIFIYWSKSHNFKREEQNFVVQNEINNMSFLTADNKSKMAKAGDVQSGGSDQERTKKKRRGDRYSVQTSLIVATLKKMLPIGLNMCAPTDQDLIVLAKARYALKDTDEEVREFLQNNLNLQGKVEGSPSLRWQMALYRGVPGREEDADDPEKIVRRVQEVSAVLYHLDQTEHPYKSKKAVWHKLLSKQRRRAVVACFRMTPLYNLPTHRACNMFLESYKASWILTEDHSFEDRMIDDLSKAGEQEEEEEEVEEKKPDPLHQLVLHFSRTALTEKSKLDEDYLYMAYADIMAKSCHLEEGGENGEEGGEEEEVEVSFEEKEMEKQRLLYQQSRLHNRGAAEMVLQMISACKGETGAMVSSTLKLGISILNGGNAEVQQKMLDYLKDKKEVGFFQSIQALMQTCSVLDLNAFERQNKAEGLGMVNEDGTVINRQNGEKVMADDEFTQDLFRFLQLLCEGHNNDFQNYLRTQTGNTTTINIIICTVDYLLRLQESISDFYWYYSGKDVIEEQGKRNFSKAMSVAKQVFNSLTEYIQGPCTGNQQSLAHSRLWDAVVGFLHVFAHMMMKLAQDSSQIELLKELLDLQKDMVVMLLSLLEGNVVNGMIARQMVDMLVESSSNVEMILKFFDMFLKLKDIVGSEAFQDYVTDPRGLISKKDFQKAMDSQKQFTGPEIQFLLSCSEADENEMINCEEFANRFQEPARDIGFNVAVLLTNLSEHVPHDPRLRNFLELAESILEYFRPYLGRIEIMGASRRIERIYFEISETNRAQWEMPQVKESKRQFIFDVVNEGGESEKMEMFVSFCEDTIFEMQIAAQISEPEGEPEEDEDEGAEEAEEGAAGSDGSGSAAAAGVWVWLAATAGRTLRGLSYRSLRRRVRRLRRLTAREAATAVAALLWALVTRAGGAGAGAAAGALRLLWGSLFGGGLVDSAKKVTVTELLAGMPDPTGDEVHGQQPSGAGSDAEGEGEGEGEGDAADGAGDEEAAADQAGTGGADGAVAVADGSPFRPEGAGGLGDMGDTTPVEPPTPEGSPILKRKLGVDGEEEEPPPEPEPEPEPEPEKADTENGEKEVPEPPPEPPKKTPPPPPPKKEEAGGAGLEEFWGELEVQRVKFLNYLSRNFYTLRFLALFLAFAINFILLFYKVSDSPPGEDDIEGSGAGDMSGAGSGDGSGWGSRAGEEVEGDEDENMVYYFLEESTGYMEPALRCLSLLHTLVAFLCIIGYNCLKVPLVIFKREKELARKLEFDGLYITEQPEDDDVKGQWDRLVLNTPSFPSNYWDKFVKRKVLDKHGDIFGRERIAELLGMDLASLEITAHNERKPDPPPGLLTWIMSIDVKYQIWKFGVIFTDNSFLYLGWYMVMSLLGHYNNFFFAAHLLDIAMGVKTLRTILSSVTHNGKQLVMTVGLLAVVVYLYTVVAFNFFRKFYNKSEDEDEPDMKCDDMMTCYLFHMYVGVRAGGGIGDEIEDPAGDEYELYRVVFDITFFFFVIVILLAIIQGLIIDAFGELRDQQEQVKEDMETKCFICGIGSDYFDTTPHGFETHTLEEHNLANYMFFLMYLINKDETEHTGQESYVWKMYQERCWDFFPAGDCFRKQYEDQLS
T1 sequence (P26883 2-108 partner limits assumed): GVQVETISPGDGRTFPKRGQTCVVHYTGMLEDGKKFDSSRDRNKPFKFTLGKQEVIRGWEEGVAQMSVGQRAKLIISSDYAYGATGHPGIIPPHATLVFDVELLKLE

For `COc1ccc2c(c1)CN(Cc1ccc(C(=O)O)cc1)CCS2` [Compound 1, 4-((7-Methoxy-2,3-dihydrobenzo[f][1,4]thiazepin-4(5H)-yl)methyl)benzoic acid], in data set [1], the “levels of calstabin1 bound to RyR1 in skeletal muscle” value is “enhanced levels of calstabin1 bound to RyR1”. In data set [2] (5 mg/kg/d in drinking water, 3 months), the “systolic and diastolic cardiac function” value is recorded as “beneficial effects”. Besides, the interstitial collagen content entry in data set [2] (5 and 10 mg/kg/d in drinking water, 3 months, vs vehicle) was “reduced”. In data set [2] (setting [3]), the “Ejection Fraction (EF)” value was “significantly increased”, the “LVEDV (LV end diastolic volume)” value is listed as “decreased” and the “LVESV (LV end systolic volume)” value was “decreased”. In addition, in data set [2] (5 and 10 mg/kg/d, 3 months), the “body weight (BW)” value is reported as “No effects”, the “hypertrophy (LV weight)” value is reported as “No effects” and the infarct size entry is on record as “No effects”. Besides, in data set [2] (5 and 10 mg/kg/d, invasive hemodynamics at 3 months), the LV systolic pressure entry is listed as “no statistically significant change”. In data set [2] (setting [4]), the “LV dP/dt max” value is listed as “preservation” and the “LV dP/dt min” value is on record as “preservation”.
